{"source": "patent US20190351012A1", "about": "“TARGETING OF INTERFERON-STIMULATED GENE EXPRESSION TO TREAT INTERFERONOPATHIES” (New York University, priority 2018, published 2019)", "key": {"[1]": {"system": "ISG54 promoter nucleosomes in FS2 human diploid fibroblasts", "experiment": "MNase-PCR nucleosome mapping of the ISG54 promoter in FS2 fibroblasts", "assay_type": "cell-based", "from_the_text": "(§1) FIG. 2. […] (A) Nuclear extracts from HEK293T cells expressing activated recombinant ISGF3 (STAT1, STAT2, IRF9 and JAK1) or transfected with vector (Ctl) were programmed with G6TI-CAT (G6TI) or p107 (ISG54) templates. Radiolabeled RNA transcripts were resolved by polyacrylamide-urea gel electrophoresis. Arrow and arrowhead indicate position of the transcripts from G6TI-CAT and p107, respectively. (B) HeLa cells were either left untreated or treated with IFN-α in the absence or presence of TSA (TSA in vivo) before nuclei were isolated for run-on transcription. Where indicated, TSA was added to the elongation reaction in vitro (TSA in vitro). Specific signals from γ-actin, ISG15, ISG56, 6-16, 9-27, IRF9 and GBP transcription were quantified following filter hybridization and normalized to the signal for GAPDH, arbitrarily set to 100. Representative data from three independent experiments are shown. FS2 human diploid fibroblasts were starved for 72 h before being treated with IFN-α for 7.5 h in the absence or presence of TSA. Mononucleosomal DNA fraction was purified from MNase-digested nuclei and analyzed for nucleosome positions by PCR quantitation of protected fragments. All samples were quantified by real-time PCR, except the—53—+1 ISG54 fragment, which was quantified by gel electrophoresis (C). […]"}, "[2]": {"system": "ISG transcription in HeLa cell nuclei", "experiment": "Run-on nuclear transcription in HeLa nuclei", "assay_type": "cell-based, human", "from_the_text": "as §1, with “Representative data from three independent experiments are shown. FS2 human diploid fibroblasts were starved for 72 h before being treated with IFN-α for 7.5 h in the absence or presence of TSA.” left out\nRun-off transcription is largely a measure of transcriptional […]. […] Nuclei were isolated from cells untreated or treated with IFNα, pulse-labeled in vitro with radioactive nucleotides, and specific transcriptional elongation was quantified by filter hybridization (FIG. 2B). […]"}}, "data": [{"smiles": "CC(/C=C/C(=O)NO)=C\\[C@@H](C)C(=O)c1ccc(N(C)C)cc1", "note": "[TSA, Trichostatin A]", "values": [{"measurement": "nuclease sensitivity of segments around TATA box and initiation site", "setting": "[1]; MNase", "value": "minimally affected"}, {"measurement": "IFN-induced increase of nuclease sensitivity of −92 to −33 ISRE segment", "setting": "[1]; co-treatment with IFN", "value": "not prevented"}, {"measurement": "housekeeping and ISG transcription in nuclear run-on", "setting": "[2]; TSA added to the in vitro run-on reaction", "value": "failed to affect"}, {"measurement": "ISG transcription in isolated nuclei", "setting": "[2]; cells stimulated with IFN in the presence of TSA (TSA in vivo)", "value": "impaired"}]}]}
